We go through 4 molecules from patent US9063142B1, “Method of predicting sensitivity to prostate cancer therapy” (University of Florida, priority 2004, dated 2015).

Common to all, as to assay type: cell-based, human
Experiment [1] has as its system LNCaP cells. Put plainly: PARP cleavage by Western blotting. As to conditions: 30 micro-M pifithrin-alpha 24 hr, then 25 micro-M roscovitine 16 hr, FIG. 5A. On the technique in general: A western blot detects proteins with antibodies after separation by electrophoresis.
Procedure: (§2) Cells were rinsed with PBS and lysed in a buffer containing 50 mM Hepes, pH 7.5, 150 mM NaCl, 1 mM EDTA, 1 mM EGTA, 10% glycerol, 0.5% NP-40, 1 mM dithiothreitol, 0.1 mM phenylmethylsulfonyl fluoride, 2.5 micro-g/ml leupeptin, 0.5 mM NaF, and 0.1 mM Na3VO4. After a 30 min incubation, insoluble material was removed by centrifugation. Cell extracts normalized for amount protein were resolved by SDS-PAGE and transferred to nitrocellulose membranes. Blots were blocked in PBS containing 0.05% Tween and 5% instant milk and incubated with antibody in PBS containing 0.05% Tween for 2 hr at room temperature. Proteins recognized by the antibody were detected by enhanced chemiluminescence using a horseradish peroxidase-coupled secondary antibody as specified by the manufacturer (Pierce).
Experiment [2] has as its system p53. The experiment can be described thus: p53 abundance in LNCaP cells, Western blotting. As to conditions: 30 micro-M pifithrin-alpha 24 hr, then 25 micro-M roscovitine 16 hr, FIG. 5A.
Procedure: as §2
For experiment [3], the system named is PC3 cells. Put plainly: DNA fragmentation, Cell Death Detection ELISA. As to conditions: 20 hr, FIG. 5B. Here is the method:
(§1) DNA fragmentation was determined using a photometric enzyme-linked immunoassay (Cell Death Detection ELISA kit, Roche) as specified by the manufacturer. […] Cell lysates were incubated with biotin-conjugated anti-histone antibody and peroxidase-conjugated anti-DNA antibody on streptavidin-coated microtiter plates for 2 hr at room temperature. After incubation with ATBS substrate for development of color, absorbance was read on a spectrophotometer at 405 nm against ABTS solution as the blank. For background determination, lysis buffer was used instead of cell lysate.

Experiment [4] has as its system LNCaP-Rf cells. Put plainly: Keratin 18 cleavage, M30 immunostaining. As to conditions: 25 micro-M, 20 hr, FIG. 2B. As for the experimental part:
After incubation, cells were fixed in ice-cold methanol at […]. for 30 min and incubated with FITC-conjugated M30 antibody for 60 min at room temperature. Cells were mounted with Vectashield containing DAPI.

Experiment [5] concerns cytochrome c. Put plainly: Cytochrome c in S100 cytosolic extracts of LNCaP cells, Western blotting. As to conditions: 25 micro-M, 20 hr, FIG. 3B. Here is the method: Cells were washed in ice-cold PBS, resuspended in an isotonic mitochondrial buffer (210 mM mannitol, 70 mM sucrose, 1 mM EDTA, 10 mM Hepes, pH 7.5, and a protease inhibitor cocktail (Sigma)), and homogenized in a Dounce homogenizer. The heavy membrane fraction was removed by two successive centrifugations, the first at 1000 H g for 10 min and the second at 10,000 H g for 10 min. To obtain the […], the supernatant was centrifuged at 100,000 H g for 90 min.

Experiment [6] deals with LNCaP cells. Put plainly: DNA fragmentation, Cell Death Detection ELISA. As to conditions: co-treated with 25 micro-M roscovitine, 20 hr, FIG. 3A. As for the experimental part: as §1
(In general: In an ELISA, binding on a coated surface is turned into a signal by an enzyme label.)

With `Cc1ccc(C(=O)Cn2c3c(sc2=N)CCCC3)cc1` [pifithrin-α], the “PARP cleavage in roscovitine-treated cells” value in experiment [1] was “substantially reduced”. In addition, the “p53 abundance in cells co-treated with roscovitine” value in experiment [2] is “did not increase”.

Regarding `CC[C@H](CO)Nc1nc(NCc2ccccc2)c2ncn(C(C)C)c2n1` [roscovitine, 6-benzylamino-2-[(R)-1-ethyl-2-hydroxye-thylamino]-9-isopropylpurine], the figures for the “increase in amounts of fragmented DNA” value in experiment [3] (25 μM) and in experiment [3] (50 μM) were 8 fold and 3 fold, respectively. In addition, in experiment [4], the “keratin 18 cleavage” value is given as “keratin 18 cleavage”. Moreover, the “cytochrome c in the cytosol” value in experiment [5] is listed as “present”.

In the case of z-DEVD-fmk, the “roscovitine-induced apoptosis (DNA fragmentation) in presence of caspase inhibitor” value in experiment [6] is reported as “did not induce apoptosis”.

For z-LEHD-fmk, in experiment [6], the “roscovitine-induced apoptosis (DNA fragmentation) in presence of caspase inhibitor” value was “did not induce apoptosis”.
